Assay results taken from PubChem BioAssay AID2060902 (Molecular Pharmacology Branch, DTP, NCI, 2025).

System: 485368-065-R3-J5-PDC spheroids with HUVEC/MSC, viability
Assay: Anticancer human tumor 485368-065-R3-J5-PDC patient-derived pancreatic carcinoma cell line growth inhibition [RAS]
Details: for IC50: curve of first compound; for viability, T/C: stronger effect = lower value
Method in brief: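 Agents were tested in combination matrices in half-log decrements from a top concentration at or near clinical Cmax (10 microM if undetermined). Targets were multi-cell spheroids of tumour lines plus HUVEC and MSC stromal cells.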
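Note: spheroids exposed to agents for seven days before readout.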

In the case of CC(=O)OC12COC1CC(O)C1(C)C(=O)C(O)C3=C(C)C(OC(=O)C(O)C(NC(=O)OC(C)(C)C)c4ccccc4)CC(O)(C(OC(=O)c4ccccc4)C21)C3(C)C (stereo not given) + CCn1c(-c2cccnc2C(C)OC)c2c3cc(ccc31)N1CCOC(CC(NC(=O)C(C(C)C)N(C)C(=O)C3(F)CCN(C(=O)C#CC(C)(C)N(C)C)CC3)C(=O)N3CCCC(N3)C(=O)OCC(C)(C)C2)C1, the IC50 (second compound 0.000949 µM) is reported as < 31.6 nM, the IC50 (second compound 0.003 µM) is reported as < 31.6 nM and the IC50 (second compound 0.00949 µM) is reported as < 31.6 nM. The IC50 (second compound 0.03 µM) was < 31.6 nM, the IC50 (second compound 0.0949 µM) was < 31.6 nM and the IC50 (second compound 0.3 µM) was < 31.6 nM. It also gave a viability, T/C (second compound 0.000949 µM, first compound 0.0316 µM) of 12.6%, a viability, T/C (second compound 0.000949 µM, first compound 0.1 µM) of 14.3% and a viability, T/C (second compound 0.000949 µM, first compound 0.316 µM) of 13.1%. For the same molecule, the viability, T/C (second compound 0.000949 µM, first compound 1 µM) was 13.9%, the viability, T/C (second compound 0.000949 µM, first compound 3.16 µM) was 21.4% and the viability, T/C (second compound 0.000949 µM, first compound 10 µM) was 25.7%. The viability, T/C (second compound 0.003 µM, first compound 0.0316 µM) was 15.6%, the viability, T/C (second compound 0.003 µM, first compound 0.1 µM) was 13.6% and the viability, T/C (second compound 0.003 µM, first compound 0.316 µM) was 14%. It also gave a viability, T/C (second compound 0.003 µM, first compound 1 µM) of 16.9%, a viability, T/C (second compound 0.003 µM, first compound 3.16 µM) of 18.9% and a viability, T/C (second compound 0.003 µM, first compound 10 µM) of 25.5%. For the same molecule, the viability, T/C (second compound 0.00949 µM, first compound 0.0316 µM) was 13.2%, the viability, T/C (second compound 0.00949 µM, first compound 0.1 µM) was 15.1% and the viability, T/C (second compound 0.00949 µM, first compound 0.316 µM) was 14%. The viability, T/C (second compound 0.00949 µM, first compound 1 µM) was 22.6%, the viability, T/C (second compound 0.00949 µM, first compound 3.16 µM) was 21.1% and the viability, T/C (second compound 0.00949 µM, first compound 10 µM) was 27.4%. For the same molecule, the viability, T/C (second compound 0.03 µM, first compound 0.0316 µM) was 12.2%, the viability, T/C (second compound 0.03 µM, first compound 0.1 µM) was 18.4% and the viability, T/C (second compound 0.03 µM, first compound 0.316 µM) was 19.4%. The viability, T/C (second compound 0.03 µM, first compound 1 µM) was 16.6%, the viability, T/C (second compound 0.03 µM, first compound 3.16 µM) was 21.1% and the viability, T/C (second compound 0.03 µM, first compound 10 µM) was 26%. The viability, T/C (second compound 0.0949 µM, first compound 0.0316 µM) was 10.7%, the viability, T/C (second compound 0.0949 µM, first compound 0.1 µM) was 16.4% and the viability, T/C (second compound 0.0949 µM, first compound 0.316 µM) was 14.5%. For the same molecule, the viability, T/C (second compound 0.0949 µM, first compound 1 µM) was 12.2%, the viability, T/C (second compound 0.0949 µM, first compound 3.16 µM) was 21.3% and the viability, T/C (second compound 0.0949 µM, first compound 10 µM) was 27.5%. For the same molecule, the viability, T/C (second compound 0.3 µM, first compound 0.0316 µM) was 13.1%, the viability, T/C (second compound 0.3 µM, first compound 0.1 µM) was 16.8% and the viability, T/C (second compound 0.3 µM, first compound 0.316 µM) was 15.9%. It also gave a viability, T/C (second compound 0.3 µM, first compound 1 µM) of 17.6%, a viability, T/C (second compound 0.3 µM, first compound 3.16 µM) of 27.7% and a viability, T/C (second compound 0.3 µM, first compound 10 µM) of 27.5%.
For CCN1CCN(Cc2ccc(Nc3ncc(F)c(-c4cc(F)c5nc(C)n(C(C)C)c5c4)n3)nc2)CC1, the viability, T/C (compound 0.00316 µM) was 99.7% [middle of 4 runs], the viability, T/C (compound 0.01 µM) was 91.6% [middle of 4 runs] and the viability, T/C (compound 0.0316 µM) was 90.2% [middle of 4 runs]. For the same molecule, the viability, T/C (compound 0.1 µM) was 75.6% [middle of 4 runs], the viability, T/C (compound 0.316 µM) was 59.6% [middle of 4 runs] and the viability, T/C (compound 1 µM) was 45.4% [middle of 4 runs].
With CCC(CC)c1cc(NC2CCC(N)C2)n2nccc2n1 (stereo not given) + C=CC(=O)N1CCN(c2nc(OCC3CCCN3C)nc3c(F)c(-c4nc(N)cc(C)c4C(F)(F)F)c(Cl)cc23)C(C)C1 the IC50 (second compound 0.00316 µM) was 1950 nM, the IC50 (second compound 0.01 µM) was 1990 nM and the IC50 (second compound 0.0316 µM) was 1950 nM. The IC50 (second compound 0.1 µM) was 1970 nM, the IC50 (second compound 0.316 µM) was 1940 nM and the IC50 (second compound 1 µM) was 1980 nM. The viability, T/C (second compound 0.00316 µM, first compound 0.0316 µM) was 107%, the viability, T/C (second compound 0.00316 µM, first compound 0.1 µM) was 93% and the viability, T/C (second compound 0.00316 µM, first compound 0.316 µM) was 114%. For the same molecule, the viability, T/C (second compound 0.00316 µM, first compound 1 µM) was 133%, the viability, T/C (second compound 0.00316 µM, first compound 3.16 µM) was 3.52% and the viability, T/C (second compound 0.00316 µM, first compound 10 µM) was 6.56%. For the same molecule, the viability, T/C (second compound 0.01 µM, first compound 0.0316 µM) was 118%, the viability, T/C (second compound 0.01 µM, first compound 0.1 µM) was 108% and the viability, T/C (second compound 0.01 µM, first compound 0.316 µM) was 109%. The viability, T/C (second compound 0.01 µM, first compound 1 µM) was 136%, the viability, T/C (second compound 0.01 µM, first compound 3.16 µM) was 3.73% and the viability, T/C (second compound 0.01 µM, first compound 10 µM) was 5.65%. The viability, T/C (second compound 0.0316 µM, first compound 0.0316 µM) was 101%, the viability, T/C (second compound 0.0316 µM, first compound 0.1 µM) was 109% and the viability, T/C (second compound 0.0316 µM, first compound 0.316 µM) was 112%. For the same molecule, the viability, T/C (second compound 0.0316 µM, first compound 1 µM) was 134%, the viability, T/C (second compound 0.0316 µM, first compound 3.16 µM) was 3.48% and the viability, T/C (second compound 0.0316 µM, first compound 10 µM) was 4.43%. It also gave a viability, T/C (second compound 0.1 µM, first compound 0.0316 µM) of 93.7%, a viability, T/C (second compound 0.1 µM, first compound 0.1 µM) of 104% and a viability, T/C (second compound 0.1 µM, first compound 0.316 µM) of 117%. It also gave a viability, T/C (second compound 0.1 µM, first compound 1 µM) of 143%, a viability, T/C (second compound 0.1 µM, first compound 3.16 µM) of 3.81% and a viability, T/C (second compound 0.1 µM, first compound 10 µM) of 6.8%. It also gave a viability, T/C (second compound 0.316 µM, first compound 0.0316 µM) of 94.8%, a viability, T/C (second compound 0.316 µM, first compound 0.1 µM) of 108% and a viability, T/C (second compound 0.316 µM, first compound 0.316 µM) of 106%. The viability, T/C (second compound 0.316 µM, first compound 1 µM) was 132%, the viability, T/C (second compound 0.316 µM, first compound 3.16 µM) was 3.87% and the viability, T/C (second compound 0.316 µM, first compound 10 µM) was 7.93%. The viability, T/C (second compound 1 µM, first compound 0.0316 µM) was 97.5%, the viability, T/C (second compound 1 µM, first compound 0.1 µM) was 92.3% and the viability, T/C (second compound 1 µM, first compound 0.316 µM) was 120%. For the same molecule, the viability, T/C (second compound 1 µM, first compound 1 µM) was 133%, the viability, T/C (second compound 1 µM, first compound 3.16 µM) was 5.49% and the viability, T/C (second compound 1 µM, first compound 10 µM) was 10.8%.
